Here are results for 9 compounds from PubChem BioAssay (NCI).

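Cells were grown in 96-well plates and exposed to each compound for 48 hours at five concentrations; endpoints were interpolated linearly between bracketing concentrations, or set to the highest concentration if not reached. TGI is the concentration that stops growth completely.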 Bounds are passed on as bounds.

Holding throughout (experiment): NCI anticancer screen, dose series, 48 h
Test [1] has as its system A549 NSCLC.
For test [2], the system named is DU-145 prostate.
Test [3] concerns HCC-2998 colon.
In test [4] the test system is HOP-92 NSCLC.
For test [5], the system named is HS 578T breast.
In test [6] the test system is M14 melanoma.
Test [7] deals with MDA-MB-231 breast.
Test [8] deals with NCI-H23 lung.
Test [9] has as its system NCI-H522 lung.
Test [10] relates to OVCAR-5 ovarian.
The subject of test [11] is SF-295 CNS.
Test [12] relates to SK-MEL-5 melanoma.
For test [13], the system named is SK-OV-3 ovarian.
Test [14] relates to SNB-19 CNS.
Test [15] concerns T-47D breast.
For test [16], the system named is UACC-62 melanoma.
The test system of test [17] is K-562 leukemia.
The test system of test [18] is MOLT-4 leukemia.

Regarding `O=P1(Oc2ccc(Cl)cc2)OCCS1` (configuration not stated), the TGI in [1], in test [2], in [3], in test [4], in [5] and in test [6] was greater than 100 µM in each case. Also, the TGI in test [7], in [8], in test [9], in [10], in test [11] and in [12] was greater than 100 µM in each case. Also, the TGI in test [13], in [14], in test [15] and in test [16] was greater than 100 µM in each case.

As to `CCn1c(=O)ccc2ccc(N(CCO)CCO)nc21`, the TGI in [1], in [2], in [3], in test [5], in [17] and in [6] was greater than 100 µM in each case. Also, the TGI in [7], in test [18], in test [8], in test [9], in test [10] and in [11] was greater than 100 µM each time. The TGI in test [12], in [13], in test [14], in test [15] and in test [16] was greater than 100 µM each time.

As to `CCOC(=O)c1cc2c([nH]1)C(=O)CC1=C2CCN1Cc1ccccc1`, the TGI was 73.5 µM in test [1]; 28.6 µM in test [2]; 28.3 µM in [4]; 57.4 µM in [5]; 25.9 µM in test [17]; 28.8 µM in test [7]. For the same compound, the TGI in test [18] is 17 µM; in test [8], 29.6 µM; in test [9], 38.5 µM; in [11] it was 34.2 µM; in test [13], 37.1 µM; in test [14] it was 31.8 µM. In addition, the TGI was 6.77 µM in test [15] and 28.4 µM in test [16].

Take `C#CCOC(=O)C(N)CSSCC(N)C(=O)O` (configuration not stated): the TGI in test [1], in test [2], in [3], in test [4], in test [5] and in test [6] was greater than 100 µM in each case. Besides, the TGI in [7], in test [18], in [8], in test [9], in [10] and in [12] was greater than 100 µM each time. Moreover, the TGI in [14], in [15] and in [16] was greater than 100 µM each time.

Consider `O=c1cc(CC(O)(C(F)(F)Cl)C(F)(F)Cl)[nH]n1-c1ccccc1`, for which the TGI in [1], in test [2], in test [3], in [4], in test [5] and in test [17] was greater than 100 µM throughout. Moreover, the TGI in test [6], in test [7], in test [18], in test [8], in [10] and in test [11] was greater than 100 µM in each case. In addition, the TGI in test [12], in test [13], in [14], in [15] and in test [16] was greater than 100 µM in each case.

In the case of `O=C1NC(=O)C(C(c2ccc(Cl)cc2)C2C(=O)NC(=O)NC2=O)C(=O)N1`, the TGI in [1], in test [2], in test [4], in test [5], in test [17] and in test [6] was greater than 100 µM throughout. In addition, the TGI in test [7], in [18], in test [8], in test [9], in test [10] and in [11] was greater than 100 µM in each case. Also, the TGI in [12], in test [14], in test [15] and in test [16] was greater than 100 µM throughout.

As to `CC(C)CC(=O)NC(NC(C)C)(C(F)(F)F)C(F)(F)F`, the TGI in test [1], in [2], in [3], in test [4], in test [5] and in test [17] was greater than 100 µM in each case. The TGI in test [7], in test [18], in test [9], in test [12], in [14] and in test [15] was greater than 100 µM in each case. This compound also displayed a TGI in test [16] greater than 100 µM.

With `O=C(CCc1ccc(O)c(O)c1)NCCc1cc(OCc2ccccc2)cc(OCc2ccccc2)c1`, the TGI is greater than 100 µM in test [1]; 32.3 µM in test [2]; 23.5 µM in test [3]; 35.6 µM in test [4]; 40.2 µM in test [5]; greater than 100 µM in [17]. The TGI in test [6] amounted to 34 µM; in [7], 48.8 µM; in test [8], 31 µM; in [9] it was 4.62 µM; in test [10] it was 30.1 µM; in test [11], 38.9 µM. Also, the TGI in [12] came to 28.7 µM; in test [13], 31.3 µM; in test [14], 18 µM; in [15], 58.2 µM; in [16], 47.4 µM.

Consider `Cc1c(CCCl)c(N=[N+]=[N-])n2c(nc3ccccc32)c1C#N`, for which the TGI was 5.95 µM in test [1]; 6.3 µM in test [2]; 2.61 µM in [4]; 2.43 µM in [5]; 1.48 µM in test [17]; 2.77 µM in test [6]. Besides, the TGI in [7] was determined as 3.16 µM; in test [18], 1.12 µM; in test [8], 2.95 µM; in test [9], 0.44 µM; in [10], 4.73 µM; in test [11] it was 3.54 µM. Also, the TGI is 1.35 µM in test [12]; 5.07 µM in test [13]; 8.37 µM in test [14]; 3.18 µM in test [15]; 3.12 µM in [16].
